Assays:
[1] = system: HCV replicon in HUH-7 cells; test: HCV replicon assay (FRET, confirmed by luciferase reporter); format: cell-based, Hepatitis C virus (strain 1b); details: Hepatitis C virus, 96 h; class symbols; HUH-7 replicon cells, 4 days
From the text: An HCV replicon whole cell system was established as described by Lohmann V, Korner F, Koch J, Herian U, Theilmann L, Bartenschlager R., Science 285(5424):110-3 (1999). This system enabled us to evaluate the effects of our HCV Protease compounds on HCV RNA replication. Briefly, using the HCV strain 1b sequence described in the Lohmann paper (Assession number: AJ238799), an HCV cDNA was synthesized by Operon Technologies, Inc. (Alameda, Calif.), and the full-length replicon was then assembled in plasmid pGem9zf(+) (Promega, Madison, Wis.) using standard molecular biology techniques. The replicon consists of (i) the HCV 5′ UTR fused to the first 12 amino acids of the capsid protein, (ii) the neomycin phosphotransferase gene (neo), (iii) the IRES from encephalomyocarditis virus (EMCV), and (iv) HCV NS3 to NS5B genes and the HCV 3′ UTR. Plasmid DNAs were linearized with Seal and RNA transcripts were synthesized in vitro using the T7 MegaScript transcription kit (Ambion, Austin, Tex.) according to manufacturer's directions. In vitro transcripts of the cDNA were transfected into the human hepatoma cell line, HUH-7. […] Resulting cell lines were characterized for positive and negative strand RNA production and protein production over time.
The HCV replicon FRET assay was developed to monitor the inhibitory effects of compounds described in the disclosure on HCV viral replication. HUH-7 cells, constitutively expressing the HCV replicon, were grown in Dulbecco's Modified Eagle Media (DMEM) (Gibco-BRL) containing 10% Fetal calf serum (FCS) (Sigma) and 1 mg/ml G418 (Gibco-BRL). Cells were seeded the night before (1.5×10^4 cells/well) in 96-well tissue-culture sterile plates. Compound and no compound controls were prepared in DMEM containing 4% FCS, 1:100 Penicillin/Streptomysin (Gibco-BRL), 1:100 L-glutamine and 5% DMSO in the dilution plate (0.5% DMSO final concentration in the assay). Compound/DMSO mixes were added to the cells and incubated for 4 days at 37° C. After 4 days, cells were first assessed for cytotoxicity using alamar Blue (Trek Diagnostic Systems) for a CC50 reading. The toxicity of compound (CC50) was determined by adding 1/10th volume of alamar Blue to the media incubating the cells. After 4 h, the fluorescence signal from each well was read, with an excitation wavelength at 530 nm and an emission wavelength of 580 nm, using the Cytofluor Series 4000 (Perspective Biosystems). Plates were then rinsed thoroughly with Phosphate-Buffered Saline (PBS) (3 times 150 μl).
As a secondary assay, EC50 determinations from the replicon FRET assay were confirmed in a replicon luciferase reporter assay. Utilization of a replicon luciferase reporter assay was first described by Krieger et al (Krieger N, Lohmann V, and Bartenschlager R, J. Viral. 75(10):4614-4624 (2001)). The replicon construct described for our FRET assay was modified by inserting cDNA encoding a humanized form of the Renilla luciferase gene and a linker sequence fused directly to the 3′-end of the luciferase gene. This insert was introduced into the replicon construct using an Asc1 restriction site located in core, directly upstream of the neomycin marker gene. The adaptive mutation at position 1179 (serine to isoleucine) was also introduced (Blight K J, Kolykhalov, A A, Rice, C M, Science 290(5498):1972-1974). A stable cell line constitutively expressing this HCV replicon construct was generated as described above. The luciferase reporter assay was set up as described for the HCV replicon FRET assay with the following modifications. Following 4 days in a 37° C./5% CO2 incubator, cells were analyzed for Renilla Luciferase activity using the Promega Dual-Glo Luciferase Assay System. Media (100 μl) was removed from each well containing cells. To the remaining 50 μl of media, 50 μl of Dual-Glo Luciferase Reagent was added, and plates rocked for 10 min to 2 h at room temperature. […]

[2] = target: T1, HCV NS3/4A protease complex (Hepatitis C virus genotype 1a, UniProt P27958, C1454S/C1711G); test: FRET peptide assay to monitor HCV NS3/4A proteolytic activity; format: biochemical; details: class symbols; NS3/4A strain not stated
T1 construct: DNA encoding the recombinant HCV NS3/4A protease complex (amino acids 1027 to 1711) for these strains; inferred from pET21b vector and Ni-NTA purification) (C); made in house; host or cells: Escherichia coli BL21 (DE3), pET21b
T1 sequence (P27958 1027-1711 C1454S/C1711G, one chain of several): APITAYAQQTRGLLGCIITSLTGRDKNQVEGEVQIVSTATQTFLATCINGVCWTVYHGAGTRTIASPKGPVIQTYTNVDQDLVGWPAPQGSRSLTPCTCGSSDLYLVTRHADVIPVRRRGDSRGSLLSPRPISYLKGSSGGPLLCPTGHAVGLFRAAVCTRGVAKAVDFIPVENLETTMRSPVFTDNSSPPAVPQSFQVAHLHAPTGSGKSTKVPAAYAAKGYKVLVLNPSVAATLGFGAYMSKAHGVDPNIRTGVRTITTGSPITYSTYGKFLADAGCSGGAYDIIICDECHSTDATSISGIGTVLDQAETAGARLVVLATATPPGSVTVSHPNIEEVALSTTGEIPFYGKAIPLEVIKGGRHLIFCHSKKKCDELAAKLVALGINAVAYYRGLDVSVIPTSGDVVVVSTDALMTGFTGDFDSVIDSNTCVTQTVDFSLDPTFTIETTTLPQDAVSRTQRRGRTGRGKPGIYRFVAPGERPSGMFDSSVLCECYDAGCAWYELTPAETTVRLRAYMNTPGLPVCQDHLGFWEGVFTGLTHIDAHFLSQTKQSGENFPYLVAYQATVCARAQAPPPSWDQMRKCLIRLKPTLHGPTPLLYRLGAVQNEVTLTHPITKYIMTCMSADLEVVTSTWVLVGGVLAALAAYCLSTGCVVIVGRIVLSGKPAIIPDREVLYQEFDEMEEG
From the text: HCV NS3 protease complexes, derived from the BMS strain, H77 strain or J4L6S strain, were generated, as described below. These purified recombinant proteins were generated for use in a homogeneous assay (see below) to provide an indication of how effective compounds of the present disclosure would be in inhibiting HCV NS3 proteolytic activity.
The H77 and J4L6S strains were used for production of recombinant NS3/4A protease complexes. DNA encoding the recombinant HCV NS3/4A protease complex (amino acids 1027 to 1711) for these strains was manipulated as described by P. Gallinari et al. (see Gallinari P, Paolini C, Brennan D, Nardi C, Steinkuhler C, De Francesco R. Biochemistry. 38(17):5620-32, (1999)). Briefly, a three-lysine solubilizing tail was added at the 3′-end of the NS4A coding region. The cysteine in the P1 position of the NS4A-NS4B cleavage site (amino acid 1711) was changed to a glycine to avoid the proteolytic cleavage of the lysine tag. Furthermore, a cysteine to serine mutation was introduced by PCR at amino acid position 1454 to prevent the autolytic cleavage in the NS3 helicase domain. The variant DNA fragment was cloned in the pET21b bacterial expression vector (Novagen) and the NS3/4A complex was expressed in Escherichia coli strain BL21 (DE3) (Invitrogen) following the protocol described by P. Gallinari et al. (see Gallinari P, Brennan D, Nardi C, Brunetti M, Tomei L, Steinkuhler C, De Francesco R., J Virol. 72(8):6758-69 (1998)) with modifications. Briefly, the NS3/4A protease complex expression was induced with 0.5 millimolar (mM) Isopropyl β-D-1-thiogalactopyranoside (IPTG) for 22 hours (h) at 20° C. A typical fermentation (1 Liter (L)) yielded approximately 10 grams (g) of wet cell paste. The cells were resuspended in lysis buffer (10 mL/g) consisting of 25 mM N-(2-Hydroxyethyl)Piperazine-N′-(2-Ethane Sulfonic acid) (HEPES), pH 7.5, 20% glycerol, 500 mM Sodium Chloride (NaCl), 0.5% Triton X-100, 1 microgram/milliliter ([…]) lysozyme, 5 mM Magnesium Chloride (MgCl2), 1 μg/ml DnaseI, 5 mM […] (βME), Protease inhibitor-Ethylenediamine Tetraacetic acid (EDTA) free (Roche), homogenized and incubated for 20 minutes (min) at 4° C. The homogenate was sonicated and clarified by ultra-centrifugation at 235000 g for 1 hour (h) at 4° C. Imidazole was added to the supernatant to a final concentration of 15 mM and the pH adjusted to 8.0. The crude protein extract was loaded on a Nickel-Nitrilotriacetic acid (Ni-NTA) column pre-equilibrated with buffer B (25 mM HEPES, pH 8.0, 20% glycerol, 500 mM NaCl, 0.5% Triton X-100, 15 mM imidazole, 5 mM βME). The sample was loaded at a flow rate of 1 mL/min. The column was washed with 15 column volumes of buffer C (same as buffer B except with 0.2% Triton X-100). The protein was eluted with 5 column volumes of buffer D (same as buffer C except with 200 mM Imidazole).
NS3/4A protease complex-containing fractions were pooled and loaded on a desalting column Superdex-S200 pre-equilibrated with buffer D (25 mM HEPES, pH 7.5, 20% glycerol, 300 mM NaCl, 0.2% Triton X-100, 10 mM (βME). Sample was loaded at a flow rate of 1 mL/min. NS3/4A protease complex-containing fractions were pooled and concentrated to approximately 0.5 mg/ml. The purity of the NS3/4A protease complexes, derived from the BMS, H77 and J4L6S strains, were judged to be greater than 90% by SDS-PAGE and mass spectrometry analyses. The enzyme was stored at −80° C., thawed on ice and diluted prior to use in assay buffer.
The purpose of this in vitro assay was to measure the inhibition of HCV NS3 protease complexes, derived from the BMS strain, H77 strain or J4L6S strain, as described above, by compounds of the present disclosure. This assay provides an indication of how effective compounds of the present disclosure would be in inhibiting HCV NS3 proteolytic activity.
In order to monitor HCV NS3/4A protease activity, an NS3/4A peptide substrate was used. […]

Row | SMILES | EC50 [1] [nM] | IC50 [2] [nM]
1 | C=C[C@@H]1C[C@]1(NC(=O)[C@@H]1C[C@]2(OC)CN1C(=O)[C@H](C(C)(C)C)NC(=O)OCCC(C)(C)CCCc1ccccc1-c1ccc2cc1)C(=O)NS(=O)(=O)C1CC1 [Example 4] | 11 to 20 | 1 to 3
2 | CO[C@@]12C[C@@H](C(=O)N[C@]3(C(=O)NS(=O)(=O)C4CC4)C[C@H]3C3CC3)N(C1)C(=O)[C@H](C(C)(C)C)NC(=O)OCC(C)(C)CCCCc1ccccc1-c1ccc2cc1 [Example 5] | 11 to 20 | 4 to 7
3 | C=C[C@@H]1C[C@]1(NC(=O)[C@@H]1C[C@]2(OC)CN1C(=O)[C@H](C(C)(C)C)NC(=O)OCC(C)(C)CCCCc1ccccc1-c1ccc2cc1)C(=O)NS(=O)(=O)C1CC1 [Example 6] | 5.5 to 10 | 1 to 3

From patent publication US8563505B2, “Hepatitis C virus inhibitors” (priority 2008, dated 2013)
